The test system of assay [1] is m-IMCD3 cells expressing PDE4 long forms. Put plainly: cAMP levels in PGE2-stimulated 3D m-IMCD3 cell culture media. The class given is cell-based. Conditions: Mus musculus, mIMCD3, compared to 100% for (DMSO + PGE2), read-out: cAMP level (% of PGE2-stimulated); for activity at 3 µM: 3 μM test compound. On the procedure:
HEK 293 and MDCK cells (Public Health England, Cell Culture Collections) were maintained in Dulbecco's Modified Eagle's Medium (DMEM) supplemented with 10% (v/v) fetal bovine serum (FBS) (Seralab), 2 mM L-glutamine and 100 U/mL penicillin streptomycin cocktail (ThermoFisher); termed complete media. Clonal HEK 293 cell lines were maintained in complete media supplemented with 0.6 mg/ml G418 (Enzo Life Sciences). Mouse inner medullary collecting duct (m-IMCD3) cells [American Type Culture Collection (ATCC)] were maintained in media consisting of DMEM/Hams F-12 50/50 Mix (DMEM F12; Corning) supplemented with penicillin streptomycin cocktail (100 U/mL) and FBS (10% v/v) (DMEM F12-10% FBS).
Activation of intracellular PDE4 long forms leads to a reduction of both intracellular cAMP and externalised cAMP (Omar et al., PNAS 116: 13320-13329, 2019). This reduction may be measured in the cell culture media supernatant of 3D cystic cell cultures, such as in the m-IMCD3 cell cyst suppression assay described in Experiment 3.
Following the completion of the m-IMCD3 cell cyst suppression assay (Experiment 3), the cAMP level in the assay media from individual or pooled assay wells was measured using a cAMP ELISA kit (Enzo Life Sciences) or a LANCE Ultra cAMP kit (PerkinElmer) according to the manufacturer's instructions.
(Cyclic AMP is a second messenger, typically raised through Gs and lowered through Gi signalling.)

The next assay has as its system m-IMCD3 cells. Kind of assay: Inhibition of PGE2-stimulated in vitro cyst formation in m-IMCD3 cells. In kind it is cell-based, mouse. Particulars: Mus musculus, mIMCD3, 144 h, mean cyst area, 100% for (DMSO + PGE2) and 0% for DMSO control, 6 days of culture; for activity at 3 µM: read-out: % Cyst area after incubation with 3 μM test compound; for activity at 10 µM: read-out: % Cyst area after incubation with 10 μM test compound. A digest of the protocol:
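Mean cyst area after 6 days, expressed relative to DMSO+PGE2 (100%) and DMSO alone (0%), from z-stack images. Mouse m-IMCD3 spheroids grew in collagen I/Matrigel gels and received PGE2 (100 nM final) with test compound (0.1% DMSO) starting 18–24 h post-plating, media refreshed at day 2 or 3.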

Regarding `O=S(=O)(Cc1ccc(F)cc1)N1CCc2nc(N3C4CCC3CNC4)sc2C1` [Example 285, 2-(3,8-diazabicyclo[3.2.1]octan-8-yl)-5-((4-fluorobenzyl)sulfonyl)-4,5,6,7-tetrahydrothiazolo[5,4-c]pyridine], the activity at 3 µM was 35% in assay [1] and -3% with m-IMCD3 cells.

As for `O=C(CC1CCCC1)N1CCc2nc(N3C[C@@H]4C[C@H]3CN4)sc2C1` [Example 277, 1-(2-((1S,4S)-2,5-diazabicyclo[2.2.1]heptan-2-yl)-6,7-dihydrothiazolo[5,4-c]pyridin-5(4H)-yl)-2-cyclopentylethan-1-one], the activity at 3 µM came out at 42% in assay [1] and 6% with m-IMCD3 cells.

As for `O=C(CC1CCCC1)N1CCc2nc(N3C4CCCC3CNC4)sc2C1` [Example 273, 1-(2-(3,9-diazabicyclo[3.3.1]nonan-9-yl)-6,7-dihydrothiazolo[5,4-c]pyridin-5(4H)-yl)-2-cyclopentylethan-1-one], the activity at 3 µM was 58% in assay [1] and -11% with m-IMCD3 cells.

Turning to `CCCN1CC2CCC(C1)N2c1nc2c(s1)CN(C(=O)COc1ccc(F)cc1)CC2` [Example 303, 2-(4-fluorophenoxy)-1-(2-(3-propyl-3,8-diazabicyclo[3.2.1]octan-8-yl)-6,7-dihydrothiazolo[5,4-c]pyridin-5(4H)-yl)ethan-1-one], the activity at 3 µM in assay [1] is 55%; with m-IMCD3 cells, 0%.

Turning to `O=C([C@H](O)C1CCCC1)N1CCc2nc(N3C4CCC3CNC4)sc2C1` [Example 171, (2R)-1-(2-(3,8-diazabicyclo[3.2.1]octan-8-yl)-6,7-dihydrothiazolo[5,4-c]pyridin-5(4H)-yl)-2-cyclopentyl-2-hydroxyethan-1-one], the values for the activity at 3 µM (in assay [1]; in the assay on m-IMCD3 cells) were 56% and 6%, respectively.

Regarding `O=C(CC1CCCC1)N1CCn2nc(N3C4CCC3CNC4)cc2C1` [Example 127, 1-(2-(3,8-diazabicyclo[3.2.1]octan-8-yl)-6,7-dihydropyrazolo[1,5-a]pyrazin-5(4H)-yl)-2-cyclopentylethan-1-one], the activity at 3 µM in assay [1] is 42%. The activity at 10 µM in the assay on m-IMCD3 cells stood at 3%.

Turning to `O=C(N1CCn2nc(N3C4CCC3CNC4)cc2C1)C(F)(F)c1ccccc1` [Example 126, 1-(2-(3,8-diazabicyclo[3.2.1]octan-8-yl)-6,7-dihydropyrazolo[1,5-a]pyrazin-5(4H)-yl)-2,2-difluoro-2-phenylethan-1-one], the activity at 3 µM in assay [1] came out at 39%. In addition, the activity at 10 µM with m-IMCD3 cells is -10%.

As for `CC1(CC(=O)N2CCn3nc(N4C5CCC4CNC5)cc3C2)CCCC1` [Example 128, 1-(2-(3,8-diazabicyclo[3.2.1]octan-8-yl)-6,7-dihydropyrazolo[1,5-a]pyrazin-5(4H)-yl)-2-(1-methylcyclopentyl)ethan-1-one], the activity at 3 µM in assay [1] is 50%. Besides, the activity at 10 µM with m-IMCD3 cells was -2%.

Take `O=C(NC1CCCC1)N1Cc2nc(N3C4CCC3CNC4)sc2C1` [Example 68, 2-(3,8-diazabicyclo[3.2.1]octan-8-yl)-N-cyclopentyl-4,6-dihydro-5H-pyrrolo[3,4-d]thiazole-5-carboxamide]: the activity at 3 µM in assay [1] worked out at 19%. Further, in the assay with m-IMCD3 cells, the activity at 10 µM was -4%.

As to `O=C(C1COc2ccccc21)N1CCc2nc(N3C4CCC3CNC4)sc2C1` (stereo not drawn) [Example 184, (2-(3,8-diazabicyclo[3.2.1]octan-8-yl)-6,7-dihydrothiazolo[5,4-c]pyridin-5(4H)-yl)(2,3-dihydrobenzofuran-3-yl)methanone], the activity at 3 µM in assay [1] worked out at 58%; with m-IMCD3 cells, 15%.

Take `O=C(CC1CCCC1)N1CCc2nc(N3C[C@H]4C[C@@H]3CN4)sc2C1` [Example 279, 1-(2-((1R,4R)-2,5-diazabicyclo[2.2.1]heptan-2-yl)-6,7-dihydrothiazolo[5,4-c]pyridin-5(4H)-yl)-2-cyclopentylethan-1-one]: the activity at 3 µM was 27% in assay [1] and 19% in the assay with m-IMCD3 cells.

For `O=C(CC1CCCC1)N1CCc2sc(N3C4CCC3CNC4)nc2C1` [Example 281, 1-(2-(3,8-diazabicyclo[3.2.1]octan-8-yl)-6,7-dihydrothiazolo[4,5-c]pyridin-5(4H)-yl)-2-cyclopentylethan-1-one], the figures for the activity at 3 µM (in assay [1]; in the assay on m-IMCD3 cells) were 51% and -9%, respectively.

As to `O=S(=O)(Cc1ccccc1)N1CCc2nc(N3C4CCC3CNC4)sc2C1` [Example 288, 5-(benzylsulfonyl)-2-(3,8-diazabicyclo[3.2.1]octan-8-yl)-4,5,6,7-tetrahydrothiazolo[5,4-c]pyridine], the activity at 3 µM in assay [1] was determined as 34%; in the assay with m-IMCD3 cells, 7%.

As to `O=C(CC1CCCC1)N1CCc2nc(N3CC4CCC(C3)N4)sc2C1` [Example 276, 1-(2-(3,8-diazabicyclo[3.2.1]octan-3-yl)-6,7-dihydrothiazolo[5,4-c]pyridin-5(4H)-yl)-2-cyclopentylethan-1-one], the activity at 3 µM in assay [1] came out at 41%; in the assay with m-IMCD3 cells, 13%.

For `CC(C)CC(=O)N1Cc2sc(N3C4CCC3CNC4)nc2C(C)(C)C1` [Example 257, 1-(2-(3,8-diazabicyclo[3.2.1]octan-8-yl)-7,7-dimethyl-6,7-dihydrothiazolo[5,4-c]pyridin-5(4H)-yl)-3-methylbutan-1-one], the activity at 3 µM is 36% in assay [1] and -3% in the assay on m-IMCD3 cells.

As for `O=C(CC1CCCC1)N1CCc2nc(N3C4CCC3CNC4)sc2C1` [Example 1, 1-(2-(3,8-diazabicyclo[3.2.1]octan-8-yl)-6,7-dihydrothiazolo[5,4-c]pyridin-5(4H)-yl)-2-cyclopentylethan-1-one], the activity at 10 µM in assay [1] (10 μM test compound) is 14%; in the assay with m-IMCD3 cells it was -5%.

In the case of `CCN1CC2CCC(C1)N2c1nc2c(s1)CN(C(=O)N[C@H]1CCOc3ccccc31)CC2` [Example 294, N—((S)-chroman-4-yl)-2-(3-ethyl-3,8-diazabicyclo[3.2.1]octan-8-yl)-6,7-dihydrothiazolo[5,4-c]pyridine-5(4H)-carboxamide], the activity at 3 µM in assay [1] was 39%; in the assay with m-IMCD3 cells, -5%.

Turning to `CC1(C)CN(C(=O)CC2CCC3(CC2)COC3)Cc2sc(N3C4CCC3CNC4)nc21` [Example 260, 1-(2-(3,8-diazabicyclo[3.2.1]octan-8-yl)-7,7-dimethyl-6,7-dihydrothiazolo[5,4-c]pyridin-5(4H)-yl)-2-(2-oxaspiro[3.5]nonan-7-yl)ethan-1-one], the activity at 3 µM in assay [1] is 52%; with m-IMCD3 cells it was 10%.
